Measurements published in patent US20240034733A1, “KRAS G12D INHIBITORS” (Mirati Therapeutics, Inc., priority 2020, published 2024).

Assays:
KRas G12D = biological target: T1, KRas G12D (Homo sapiens, UniProt P01116, G12D); test: KRas G12D Surface Plasmon Resonance (SPR) Binding Assay; conditions: Biacore T200, 20° C., 1:1 binding model, read-out: KD (nM), Determination of KRas G12D KD
T1 construct: Avidin-tag (so in the source)
Experimental: This Example illustrates that exemplary compounds of the present invention bind to KRas G12D as measured by surface plasmon resonance (SPR).
Briefly, 1 L of 1.05×HBS-Mg buffer (262.5 mM BioUltra Hepes, pH 7.5, 157.5 mM NaCl, 105 mM MgCl2, 0.525 mM TCEP, 0.0305% Brij-35) was prepared and filter sterilized using a 0.22 μm bottle top filter. Approximately 50 mL of 1.05×HBS-Mg buffer was removed and saved for future dilutions. A 50 mL aliquot of DMSO (Sigma Aldrich DMSO Lot. #SHBK2079) was added and continued to stir for 10 minutes, creating the final 1.0×HBS-Mg buffer (250 mM BioUltra Hepes pH 7.5, 150 mM NaCl, 100 mM MgCl2, 0.5 mM TCEP, 0.03% Brij-35).
Biacore T200 instrument was primed using 1.0×HBS-Mg buffer before docking a GE Streptavidin (SA) chip and then primed two additional times prior to beginning the immobilization step. All immobilized protein mixtures were created using 3-5 mg/mL Biotinylated Avidin-tagged KRAS protein using the following immobilization settings: SA chip type, 1 flow cells per cycle, 720 second contact time, and 5 μL/min flow rate. Normalization of the detector was also performed during the immobilization step using the GE BiaNormalize solution.
All compounds were diluted to 10 mM in 100% DMSO prior to being diluted 20× in 1.05× buffer. Another 10× dilution was created using 1.0× buffer prior to performing a series of 3×dilutions to create a compound concentration curve using the following assay settings: 20° C. analysis temperature, General Settings=10 Hz data collection rate and multi-detection; Assay Steps=all set to LMW kinetics; Cycle Types=LMW kinetics (60 s contact time, 120 s dissociation time, 100 μL/min flow rate, extra wash after injection with 50% DMSO, flow path 1, 2, 3, 4); Flow path detection=2−1, 4−3). Data evaluation was performed using the Biacore T200 Evaluation software and data fit to 1:1 binding model.

[1] = biological target: T2, GDP-loaded recombinant human KRAS G12D (Homo sapiens, UniProt P01116, G12D); test: KRas G12D Binding Assay (TR-FRET displacement of Cy5 labelled tracer); conditions: 60 minute incubation at 22° C.
T2 construct: corresponding to amino acids 1:169, produced at Array BioPharma; biotin (biotinylated); made in house
Experimental: This Example illustrates that exemplary compounds of the present invention bind to KRas G12D and are capable of displacing a labeled tracer ligand occupying the KRas G12D binding site.
The ability of a compound to bind to KRAS G12D was measured using a TR-FRET displacement assay. Biotinylated GDP-loaded recombinant human KRAS G12D (corresponding to amino acids 1:169, produced at Array BioPharma) was incubated with a custom-made Cy5 labelled tracer, europium labelled streptavidin and compound (2% DMSO final) in buffer (50 mM HEPES [pH 7.5], 5 mM MgCl2, 0.005% Tween-20 & 1 mM DTT). After a 60 minute incubation at 22° C., the reaction was measured using a PerkinElmer EnVision multimode plate reader via TR-FRET dual wavelength detection, and the percent of control (POC) calculated using a ratiometric emission factor. […] The POC values were fit to a 4-parameter logistic curve and the IC50 value was determined as the concentration where the curve crosses 50 POC.

[2] = tested on: KRas G12D-mediated phosphorylation of ERK; test: Inhibition of KRas G12D-mediated phosphorylation of ERK in AGS cells; format: cell-based; conditions: Homo sapiens; AGS cells expressing G12D, 3 hours, phospho-ERK normalized to GAPDH
Experimental: AGS cells (ATCC CRL-1739) expressing G12D were grown in DMEM medium supplemented with 10% fetal bovine serum, 10 mM HEPES, and Penicillin/Streptomycin. Cells were plated in tissue culture treated 96 well plates at a density of 40,000 cells/well and allowed to attach for 12-14 hours. Diluted compounds were then added in a final concentration of 0.5% DMSO. After 3 hours, the medium was removed, 150 μl of 4.0% formaldehyde was added and the plates incubated at room temperature for 20 minutes. The plates were washed with PBS, and permeabilized with 150p of ice cold 100% methanol for 10 minutes. Non-specific antibody binding to the plates was blocked using 100 μL Licor blocking buffer (Li-Cor Biotechnology, Lincoln NE) for 1 hour at room temperature.
The amount of phosho-ERK was determined using an antibody specific for the phosphorylated form of ERK and compared to the amount of GAPDH. Primary antibodies used for the detection were added as follows: Phospho-ERK (Cell Signaling cs-9101) diluted 1:500 and GAPDH (Millipore MAB374) diluted 1:5000 in Licor block+0.05% Tween 20. The plates were incubated for 2 hours at room temperature. The plates were washed with PBS+0.05% Tween 20.
Secondary antibodies used to visualize primary antibodies were added as follows: Anti-rabbit-680 diluted 1:1000 and Anti-mouse-800 diluted 1:1000 both in Licor block+0.05% Tween20, and were incubated for 1 hour at room temperature. The plates were washed with PBS +0.05% Tween 20. A 100 μl aliquot of PBS was added to each well and the plates were read on a Li-Cor Odyssey CLX plate reader phospho-ERK (Thr202/Tyr204) signal was normalized to the GAPDH signal for each well and percent of DMSO control values were calculated. IC50 values were generated using a 4-parameter fit of the dose response curve

T2 sequence (P01116 1-169 isoform P01116-2 G12D): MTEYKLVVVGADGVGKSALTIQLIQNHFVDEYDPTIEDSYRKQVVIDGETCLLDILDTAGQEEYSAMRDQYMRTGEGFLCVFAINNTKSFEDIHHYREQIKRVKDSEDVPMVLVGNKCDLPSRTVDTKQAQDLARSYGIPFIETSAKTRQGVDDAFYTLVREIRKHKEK
T1 sequence (P01116 1-188 isoform P01116-2 G12D): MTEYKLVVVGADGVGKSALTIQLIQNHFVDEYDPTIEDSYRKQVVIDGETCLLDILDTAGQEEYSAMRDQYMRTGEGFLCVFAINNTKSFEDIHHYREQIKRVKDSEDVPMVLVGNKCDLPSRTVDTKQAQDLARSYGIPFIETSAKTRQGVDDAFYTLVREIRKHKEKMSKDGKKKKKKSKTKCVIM

| SMILES | Kd (KRas G12D) [nM] | IC50 [1] [nM] | IC50 [2] [nM] |
| --- | --- | --- | --- |
| Fc1c(-c2cccc3cccc(Cl)c23)ccc2c(N3C[C@H]4CC[C@@H](C3)N4)nc(OCC34CCCN3CCC4)nc12 [Example 2, 4-((1R,5S)-3,8-diazabicyclo[3.2.1]octan-3-yl)-7-(8-chloronaphthalen-1-yl)-8-fluoro-2-((tetrahydro-1H-pyrrolizin-7a(5H)-yl)methoxy)quinazoline] | 8 | 6.1 | 4540 |
| CN1CCC[C@H]1COc1nc(N2C[C@H]3CC[C@@H](C2)N3)c2cc(Cl)c(-c3cc(O)cc4ccccc34)c(F)c2n1 [Example 7, 4-(4-((1R,5S)-3,8-diazabicyclo[3.2.1]octan-3-yl)-6-chloro-8-fluoro-2-(((S)-1-methylpyrrolidin-2-yl)methoxy)quinazolin-7-yl)naphthalen-2-ol] | 9 | 11.2 | 1420 |
| CN1CCC[C@H]1COc1nc(N2C[C@H]3CC[C@@H](C2)N3)c2ccc(-c3cc(O)cc4ccccc34)c(F)c2n1 [Example 8, 4-(4-((1R,5S)-3,8-diazabicyclo[3.2.1]octan-3-yl)-8-fluoro-2-(((S)-1-methylpyrrolidin-2-yl)methoxy)quinazolin-7-yl)naphthalen-2-ol] | 3 | 4.3 | 271 |
| CN1CCC[C@H]1COc1nc(N2C[C@H]3CC[C@@H](C2)N3)c2ccc(-c3cc(O)cc4ccccc34)cc2n1 [Example 10, 4-(4-((1R,5S)-3,8-diazabicyclo[3.2.1]octan-3-yl)-2-(((S)-1-methylpyrrolidin-2-yl)methoxy)quinazolin-7-yl)naphthalen-2-ol] | 19 | 22.9 | 5660 |
| CN1CCC[C@H]1COc1nc(N2CC3CCC2CN3)c2cc(Cl)c(-c3cc(O)cc4ccccc34)c(F)c2n1 (stereo partly drawn) [Example 11, 4-((7R)-4-(2,5-diazabicyclo[2.2.2]octan-2-yl)-6-chloro-8-fluoro-2-(((S)-1-methylpyrrolidin-2-yl)methoxy)quinazolin-7-yl)naphthalen-2-ol] | 16 | 10.4 | 2840 |
| CN1CCC[C@H]1COc1nc(N2CCNC3(CC3)C2)c2ccc(-c3cc(O)cc4ccccc34)c(F)c2n1 [Example 12, (S)-4-(8-fluoro-2-((1-methylpyrrolidin-2-yl)methoxy)-4-(4,7-diazaspiro[2.5]octan-7-yl)quinazolin-7-yl)naphthalen-2-ol] | 110 |  | 5560 |
| CN1CCC[C@H]1COc1nc(N2C[C@H]3CC[C@@H](C2)N3)c2ccc(-c3cccc4ccc(F)cc34)c(F)c2n1 [Example 13, 4-((1R,5S)-3,8-diazabicyclo[3.2.1]octan-3-yl)-8-fluoro-7-(7-fluoronaphthalen-1-yl)-2-(((S)-1-methylpyrrolidin-2-yl)methoxy)quinazoline] | 78 | 61.9 | 5560 |
| CN1CCC[C@H]1COc1nc(N2CC3CCC2CN3)c2cnc(-c3cc(O)cc4ccccc34)c(F)c2n1 (stereo partly drawn) [Example 14, 4-(4-(2,5-diazabicyclo[2.2.2]octan-2-yl)-8-fluoro-2-(((S)-1-methylpyrrolidin-2-yl)methoxy)pyrido[4,3-d]pyrimidin-7-yl)naphthalen-2-ol] | 36 | 30.8 | 8610 |
| CN1CCC[C@H]1COc1nc(N2C[C@H]3CC[C@@H]2CN3)c2cnc(-c3cc(O)cc4ccccc34)c(F)c2n1 [Example 15, 4-(4-((1R,4R)-2,5-diazabicyclo[2.2.2]octan-2-yl)-8-fluoro-2-(((S)-1-methylpyrrolidin-2-yl)methoxy)pyrido[4,3-d]pyrimidin-7-yl)naphthalen-2-ol] | 93 |  | 7120 |
| CN1CCC[C@H]1COc1nc2c(c(N3CC4CCC3CN4)n1)CCN(c1cc(O)cc3ccccc13)C2 (stereo partly drawn) [Example 16, 4-(4-(2,5-diazabicyclo[2.2.2]octan-2-yl)-2-(((S)-1-methylpyrrolidin-2-yl)methoxy)-5,8-dihydropyrido[3,4-d]pyrimidin-7(6H)-yl)naphthalen-2-ol] | 300 | 152 | 5950 |
| CN1C[C@H](F)C[C@H]1COc1nc(N2C[C@H]3CC[C@@H](C2)N3)c2ccc(-c3cc(O)cc4ccccc34)c(F)c2n1 [Example 29, 4-(4-((1R,5S)-3,8-diazabicyclo[3.2.1]octan-3-yl)-8-fluoro-2-(((2S,4R)-4-fluoro-1-methylpyrrolidin-2-yl)methoxy)quinazolin-7-yl)naphthalen-2-ol] | 5 | 1.8 | 779 |
| Cc1cc2[nH]ncc2c(-c2ccc3c(N4C[C@H]5CC[C@@H](C4)N5)nc(OC[C@@H]4CCCN4C)nc3c2F)c1C [Example 30, 4-((1R,5S)-3,8-diazabicyclo[3.2.1]octan-3-yl)-7-(5,6-dimethyl-1H-indazol-4-yl)-8-fluoro-2-(((S)-1-methylpyrrolidin-2-yl)methoxy)quinazoline] | 152 | 57 | 5090 |
| CN1CC(F)(F)C[C@H]1COc1nc(N2C[C@H]3CC[C@@H](C2)N3)c2ccc(-c3cc(O)cc4ccccc34)c(F)c2n1 [Example 31, 4-(4-((1R,5S)-3,8-diazabicyclo[3.2.1]octan-3-yl)-2-(((S)-4,4-difluoro-1-methylpyrrolidin-2-yl)methoxy)-8-fluoroquinazolin-7-yl)naphthalen-2-ol] | 121 | 297 | 8500 |
